Assay results from ChEMBL document CHEMBL5380868, “Filling a nick in NIK: Extending the half-life of a NIK inhibitor through structure-based drug design” (Bioorg Med Chem Lett, 2023).
Converted amounts (≈) assume the structure as drawn.

Legend:
[1] = Half life in iv dosed Sprague-Dawley rat; format: ADME, organism-based; conditions: in vivo
[2] = Plasma clearance in iv dosed C57BL/6J mouse; format: ADME, organism-based
[3] = Hepatic clearance in dog liver microsomes; format: ADME, Canis lupus familiaris, Microsome
[4] = Hepatic clearance in human hepatocytes; format: ADME, cell-based, Hepatocyte
[5] = Volume of distribution in non-naive Beagle dog; format: ADME, Canis lupus familiaris; conditions: in vivo
[6] = Kinetic solubility of compound in PBS at pH 7.4; format: physicochemical; conditions: read-out: Kinetic_solubility
HEK293 = test: Inhibition of Herpes simplex virus thymidine kinase in HEK293 cells assessed as maximal inhibition by Renilla luciferase based assay relative to control; format: cell-based; conditions: Herpesviridae sp.
[7] = Hepatic clearance in mouse hepatocytes; format: ADME, cell-based, Hepatocyte
[8] = Oral bioavailability in Sprague-Dawley rat at 5 mg/kg; format: ADME, organism-based; conditions: in vivo
[9] = Hepatic clearance in rat liver microsomes; format: ADME, Microsome
[10] = molecular target: Mitogen-activated protein kinase kinase kinase kinase 5 (Homo sapiens) (UniProt Q9Y4K4); test: Inhibition of recombinant human KHS1 at 1 uM relative to control
[11] = molecular target: Serine/threonine-protein kinase D1 (Homo sapiens) (UniProt Q15139); test: Inhibition of recombinant human PKD1 at 1 uM relative to control
Sequence of Serine/threonine-protein kinase D1 (Homo sapiens) (Q15139 whole entry, looked up): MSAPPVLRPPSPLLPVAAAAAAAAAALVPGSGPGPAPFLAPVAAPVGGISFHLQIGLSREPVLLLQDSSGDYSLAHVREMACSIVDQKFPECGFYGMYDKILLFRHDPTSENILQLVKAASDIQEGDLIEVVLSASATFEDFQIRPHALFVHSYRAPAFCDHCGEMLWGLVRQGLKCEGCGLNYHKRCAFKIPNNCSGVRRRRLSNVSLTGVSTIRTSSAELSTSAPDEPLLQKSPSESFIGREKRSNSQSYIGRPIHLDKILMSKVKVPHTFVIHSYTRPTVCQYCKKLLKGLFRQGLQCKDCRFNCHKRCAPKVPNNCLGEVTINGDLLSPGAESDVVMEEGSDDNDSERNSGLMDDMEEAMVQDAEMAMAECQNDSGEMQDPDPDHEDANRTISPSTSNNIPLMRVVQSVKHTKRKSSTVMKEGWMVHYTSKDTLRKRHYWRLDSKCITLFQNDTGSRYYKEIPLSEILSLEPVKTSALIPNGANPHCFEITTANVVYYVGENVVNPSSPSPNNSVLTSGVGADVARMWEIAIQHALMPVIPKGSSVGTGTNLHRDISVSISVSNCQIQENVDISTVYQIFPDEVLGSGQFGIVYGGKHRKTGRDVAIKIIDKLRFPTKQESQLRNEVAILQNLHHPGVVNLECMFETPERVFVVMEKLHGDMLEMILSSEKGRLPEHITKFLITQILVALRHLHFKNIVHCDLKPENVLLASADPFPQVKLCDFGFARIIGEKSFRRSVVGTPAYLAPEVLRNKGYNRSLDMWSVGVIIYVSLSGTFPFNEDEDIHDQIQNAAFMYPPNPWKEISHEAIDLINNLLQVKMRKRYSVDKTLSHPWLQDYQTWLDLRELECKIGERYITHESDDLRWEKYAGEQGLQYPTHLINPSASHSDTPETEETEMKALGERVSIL

[12] = molecular target: T1, Mitogen-activated protein kinase kinase kinase 14 (Homo sapiens, UniProt Q99558); test: Inhibition of NIK (unknown origin) catalyzed ATP hydrolysis by fluorescence polarization method
T1 sequence (Q99558 whole entry): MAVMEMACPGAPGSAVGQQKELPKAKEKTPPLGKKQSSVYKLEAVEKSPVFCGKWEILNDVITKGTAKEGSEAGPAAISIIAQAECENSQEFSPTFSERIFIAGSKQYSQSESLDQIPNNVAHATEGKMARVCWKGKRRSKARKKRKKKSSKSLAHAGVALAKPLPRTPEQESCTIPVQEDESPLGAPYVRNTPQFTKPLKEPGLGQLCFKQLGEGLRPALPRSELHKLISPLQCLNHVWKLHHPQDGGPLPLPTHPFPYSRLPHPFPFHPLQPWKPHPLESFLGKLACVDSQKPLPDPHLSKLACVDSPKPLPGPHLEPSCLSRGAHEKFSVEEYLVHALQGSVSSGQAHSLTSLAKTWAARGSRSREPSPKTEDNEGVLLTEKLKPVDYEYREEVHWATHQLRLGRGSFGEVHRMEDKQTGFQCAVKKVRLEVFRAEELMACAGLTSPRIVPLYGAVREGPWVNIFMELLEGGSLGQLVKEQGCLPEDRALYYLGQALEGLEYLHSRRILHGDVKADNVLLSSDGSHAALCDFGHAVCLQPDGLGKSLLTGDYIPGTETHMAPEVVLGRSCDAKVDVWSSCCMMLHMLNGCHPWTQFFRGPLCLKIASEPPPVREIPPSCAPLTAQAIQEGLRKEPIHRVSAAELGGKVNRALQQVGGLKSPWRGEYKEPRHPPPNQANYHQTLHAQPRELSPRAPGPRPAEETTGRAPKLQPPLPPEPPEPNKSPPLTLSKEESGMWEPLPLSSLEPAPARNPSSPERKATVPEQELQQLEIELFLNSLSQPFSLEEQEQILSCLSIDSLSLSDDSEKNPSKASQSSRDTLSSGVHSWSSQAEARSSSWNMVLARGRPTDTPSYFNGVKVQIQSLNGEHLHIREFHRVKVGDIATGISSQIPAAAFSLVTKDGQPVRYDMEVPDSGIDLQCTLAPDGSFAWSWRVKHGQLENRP

[13] = Oral bioavailability in C57BL/6J mouse at 10 mg/kg; format: ADME, organism-based; conditions: in vivo
[14] = Volume of distribution in C57BL/6J mouse; format: ADME; conditions: in vivo
[15] = Hepatic clearance in rat hepatocytes; format: ADME, cell-based, Hepatocyte
[16] = Inhibition of Herpes simplex virus thymidine kinase in HEK293 cells by Renilla luciferase based assay; format: cell-based; conditions: Herpesviridae sp.
[17] = Lipophilicity, logD of the compound at pH 7.4 by shake flask method based LC-MS analysis; format: physicochemical; conditions: buffer
[18] = Half life in iv dosed Cynomolgus monkey; format: ADME, organism-based, Macaca fascicularis; conditions: in vivo
[19] = Unbound plasma clearance in iv dosed non-naive Beagle dog; format: ADME, organism-based, Canis lupus familiaris; conditions: in vivo
[20] = Volume of distribution in Cynomolgus monkey; format: ADME, Macaca fascicularis; conditions: in vivo
[21] = Volume of distribution in Sprague-Dawley rat; format: ADME; conditions: in vivo
[22] = molecular target: T1, Mitogen-activated protein kinase kinase kinase 14; test: Inhibition of NIK in HUVEC cells assessed as inhibition of anti-[…]-stimulated p52 nuclear translocation; format: cell-based
[23] = Hepatic clearance in mouse liver microsomes; format: ADME, Microsome
[24] = Half life in iv dosed non-naive Beagle dog; format: ADME, organism-based, Canis lupus familiaris; conditions: in vivo
[25] = Half life in iv dosed C57BL/6J mouse; format: ADME, organism-based; conditions: in vivo
[26] = Oral bioavailability in Cynomolgus monkey at 1 mg/kg; format: ADME, organism-based, Macaca fascicularis; conditions: in vivo
[27] = Hepatic clearance in human liver microsomes; format: ADME, Microsome
[28] = Plasma clearance in iv dosed Cynomolgus monkey; format: ADME, organism-based, Macaca fascicularis; conditions: in vivo
[29] = Oral bioavailability in non-naive Beagle dog at 1 mg/kg; format: ADME, organism-based, Canis lupus familiaris; conditions: in vivo
[30] = Unbound plasma clearance in iv dosed C57BL/6J mouse; format: ADME, organism-based; conditions: in vivo
[31] = molecular target: T1, Mitogen-activated protein kinase kinase kinase 14; test: Inhibition of NIK in HEK-293 cells assessed as inhibition of NIK-dependent NF-kappaB response element expression by firefly luciferase reporter gene based analysis; format: cell-based, HEK293
[32] = molecular target: Leucine-rich repeat serine/threonine-protein kinase 2 (Homo sapiens) (UniProt Q5S007); test: Inhibition of recombinant human LRRK2 at 1 uM relative to control
Sequence of Leucine-rich repeat serine/threonine-protein kinase 2 (Homo sapiens) (Q5S007 whole entry): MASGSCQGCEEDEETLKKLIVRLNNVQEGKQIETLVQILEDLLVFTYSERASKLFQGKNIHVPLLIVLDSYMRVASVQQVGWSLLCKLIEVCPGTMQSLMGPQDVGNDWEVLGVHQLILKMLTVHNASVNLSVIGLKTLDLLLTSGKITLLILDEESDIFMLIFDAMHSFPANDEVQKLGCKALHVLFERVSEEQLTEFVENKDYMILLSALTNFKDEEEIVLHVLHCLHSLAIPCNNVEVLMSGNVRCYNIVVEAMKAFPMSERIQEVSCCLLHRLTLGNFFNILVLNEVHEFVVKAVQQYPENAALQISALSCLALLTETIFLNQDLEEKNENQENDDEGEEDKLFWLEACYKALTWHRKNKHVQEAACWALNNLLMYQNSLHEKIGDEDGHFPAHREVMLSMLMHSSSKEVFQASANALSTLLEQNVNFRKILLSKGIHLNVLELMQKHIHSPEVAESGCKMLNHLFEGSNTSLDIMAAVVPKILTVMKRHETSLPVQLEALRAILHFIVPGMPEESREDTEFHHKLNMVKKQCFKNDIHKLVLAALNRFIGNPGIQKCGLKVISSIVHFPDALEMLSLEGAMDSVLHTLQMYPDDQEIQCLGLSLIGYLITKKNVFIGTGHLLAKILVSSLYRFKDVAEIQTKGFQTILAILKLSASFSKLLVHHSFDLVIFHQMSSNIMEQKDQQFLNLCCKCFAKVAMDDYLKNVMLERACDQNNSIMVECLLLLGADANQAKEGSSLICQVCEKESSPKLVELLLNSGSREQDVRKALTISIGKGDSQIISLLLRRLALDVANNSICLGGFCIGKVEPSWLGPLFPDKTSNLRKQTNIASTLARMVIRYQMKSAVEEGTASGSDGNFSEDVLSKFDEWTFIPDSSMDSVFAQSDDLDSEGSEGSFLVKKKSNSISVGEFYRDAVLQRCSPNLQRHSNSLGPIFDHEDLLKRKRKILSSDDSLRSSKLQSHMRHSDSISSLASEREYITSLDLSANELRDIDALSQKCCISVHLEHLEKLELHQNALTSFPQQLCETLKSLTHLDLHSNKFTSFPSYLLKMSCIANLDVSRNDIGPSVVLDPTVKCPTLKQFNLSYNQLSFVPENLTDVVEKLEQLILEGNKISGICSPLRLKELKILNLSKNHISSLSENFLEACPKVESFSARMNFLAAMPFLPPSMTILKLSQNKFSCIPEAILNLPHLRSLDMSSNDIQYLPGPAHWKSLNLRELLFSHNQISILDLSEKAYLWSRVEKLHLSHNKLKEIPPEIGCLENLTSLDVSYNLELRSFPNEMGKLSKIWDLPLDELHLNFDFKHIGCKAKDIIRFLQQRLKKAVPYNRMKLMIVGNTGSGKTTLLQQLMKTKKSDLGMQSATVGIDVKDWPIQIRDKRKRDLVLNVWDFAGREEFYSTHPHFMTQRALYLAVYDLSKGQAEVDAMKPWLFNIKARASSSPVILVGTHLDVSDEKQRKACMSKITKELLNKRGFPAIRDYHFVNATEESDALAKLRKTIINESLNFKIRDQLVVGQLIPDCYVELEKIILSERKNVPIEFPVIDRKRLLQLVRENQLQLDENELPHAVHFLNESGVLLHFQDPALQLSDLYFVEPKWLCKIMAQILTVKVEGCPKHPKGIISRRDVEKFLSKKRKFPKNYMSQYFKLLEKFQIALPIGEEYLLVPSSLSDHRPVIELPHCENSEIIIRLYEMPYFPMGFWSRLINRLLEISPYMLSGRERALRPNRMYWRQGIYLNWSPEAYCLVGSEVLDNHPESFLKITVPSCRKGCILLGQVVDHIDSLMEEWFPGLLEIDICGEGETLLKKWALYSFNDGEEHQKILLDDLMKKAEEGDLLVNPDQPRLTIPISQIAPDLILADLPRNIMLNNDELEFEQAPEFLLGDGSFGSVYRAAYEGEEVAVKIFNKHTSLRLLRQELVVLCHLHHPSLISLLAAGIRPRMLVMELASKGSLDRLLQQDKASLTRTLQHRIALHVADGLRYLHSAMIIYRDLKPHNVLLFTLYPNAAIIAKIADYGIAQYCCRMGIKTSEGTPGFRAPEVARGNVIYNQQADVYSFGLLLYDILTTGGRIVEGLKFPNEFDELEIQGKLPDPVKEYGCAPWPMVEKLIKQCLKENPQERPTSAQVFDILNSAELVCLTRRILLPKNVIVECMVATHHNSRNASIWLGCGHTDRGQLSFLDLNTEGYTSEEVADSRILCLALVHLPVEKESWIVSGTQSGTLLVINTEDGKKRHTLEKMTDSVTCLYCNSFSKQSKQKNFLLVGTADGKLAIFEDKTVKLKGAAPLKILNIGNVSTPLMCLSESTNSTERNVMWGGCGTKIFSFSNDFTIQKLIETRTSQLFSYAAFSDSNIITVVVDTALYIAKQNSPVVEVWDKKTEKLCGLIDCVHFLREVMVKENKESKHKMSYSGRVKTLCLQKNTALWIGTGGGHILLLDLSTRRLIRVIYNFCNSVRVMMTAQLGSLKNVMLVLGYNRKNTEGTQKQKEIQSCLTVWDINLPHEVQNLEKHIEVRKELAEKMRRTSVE

[33] = Plasma clearance in iv dosed non-naive Beagle dog; format: ADME, organism-based, Canis lupus familiaris
[34] = molecular target: T1, Mitogen-activated protein kinase kinase kinase 14; test: Inhibition of NIK in human primary B cell assessed as inhibition of CD40L-stimulated nuclear translocation of p52 in cell based assay
[35] = Unbound plasma clearance in iv dosed Cynomolgus monkey; format: ADME, organism-based, Macaca fascicularis; conditions: in vivo
[36] = Hepatic clearance in dog hepatocytes; format: ADME, cell-based, Canis lupus familiaris, Hepatocyte
[37] = Unbound plasma clearance in iv dosed Sprague-Dawley rat; format: ADME, organism-based; conditions: in vivo
[38] = Hepatic clearance in cynomolgus monkey hepatocytes; format: ADME, cell-based, Macaca fascicularis, Hepatocyte
[39] = Plasma clearance in iv dosed Sprague-Dawley rat; format: ADME, organism-based
[40] = Hepatic clearance in cynomolgus monkey liver microsomes; format: ADME, Macaca fascicularis, Microsome
[41] = Oral bioavailability in Cynomolgus monkey at 5 mg/kg; format: ADME, organism-based, Macaca fascicularis; conditions: in vivo
[42] = Oral bioavailability in non-naive Beagle dog at 5 mg/kg; format: ADME, organism-based, Canis lupus familiaris; conditions: in vivo
[43] = Oral bioavailability in C57BL/6J mouse at 50 mg/kg; format: ADME, organism-based; conditions: in vivo

`CN1C(=O)[C@](O)(C#Cc2cccc(-n3nc(C(N)=O)c4cccnc43)c2)[C@H]2C[C@H]21` gave a half-life [1] of 0.7 h, a clearance [2] of 11 mL/min/kg and a CLhep predicted [3] of 14 mL/min/kg. The CLhep predicted [4] was < 6.2 mL/min/kg, the Vd [5] was 1.2 L/kg and the solubility kinetic [6] was 92 µM (≈ 35.6 µg/mL). The Imax (HEK293) was 6%, the CLhep predicted [7] was < 21 mL/min/kg and the bioavailability [8] was > 100%. The CLhep predicted [9] was 18 mL/min/kg, the inhibition [10] was 89% and the inhibition [11] was 79%. For the same compound, the IC50 [12] was 2 nM, the bioavailability [13] was 49% and the Vd [14] was 1.1 L/kg. For the same compound, the CLhep predicted [15] was < 10 mL/min/kg, the IC50 [16] was > 2000 nM and the logD [17] was 1.8. For the same compound, the half-life [18] was 4.9 h, the CL free [19] was 68 mL/min/kg and the Vd [20] was 2 L/kg. For the same compound, the Vd [21] was 2.6 L/kg, the IC50 [22] was 55 nM and the CLhep predicted [23] was 29 mL/min/kg. The half-life [24] was 4.8 h, the half-life [25] was 1.5 h and the bioavailability [26] was 65%. It also gave a CLhep predicted [27] of 5.8 mL/min/kg, a clearance [28] of 6.7 mL/min/kg and a bioavailability [29] of 78%. For the same compound, the CL free [30] was 367 mL/min/kg, the IC50 [31] was 53 nM and the inhibition [32] was 6%. The clearance [33] was 7.1 mL/min/kg, the IC50 [34] was 330 nM and the CL free [35] was 95 mL/min/kg. For the same compound, the CLhep predicted [36] was < 7.8 mL/min/kg, the CL free [37] was 656 mL/min/kg and the CLH [38] was < 8.8 mL/min/kg. For the same compound, the clearance [39] was 42 mL/min/kg and the CLhep predicted [40] was 15 mL/min/kg.
In the case of `CN1CC[C@@](O)(C#Cc2cccc(-n3nc(C(N)=O)c4cccnc43)c2)C1=O`, the bioavailability [41] is reported as > 100%, the Vd [5] is reported as 0.8 L/kg and the solubility kinetic [6] is reported as 122 µM (≈ 45.8 µg/mL). For the same compound, the Imax (HEK293) was 7%, the bioavailability [8] was 62% and the bioavailability [42] was 44%. For the same compound, the bioavailability [43] was 72%, the Vd [14] was 0.5 L/kg and the IC50 [16] was > 2000 nM. The Vd [20] was 1.1 L/kg, the Vd [21] was 2.9 L/kg and the inhibition [32] was 59%.
Compound `COc1cc(C(N)=O)nc(-c2cccc(C#C[C@]3(O)CCN(C)C3=O)c2)c1` has an inhibition [32] of 82%.
